Test results reported in patent US5977119A, “Trisubstituted thioxanthines” (Euro-Celtique, S.A., priority 1997, dated 1999).
One block for each molecule: values may come before it.

What was measured:
[1] = test system: bronchial and coronary dilation; conditions: in words; cited from earlier work
[2] = test system: Type IV PDE isolated from bovine tracheal smooth muscle (PDE IV); experiment: Type IV PDE activity (hydrolysis of [^3 H]-cyclic AMP); format: biochemical; conditions: cyclic AMP 0.2 mM, 2.5% dimethyl sulfoxide, * = disubstituted analog
From the text: In addition, the PDE IV inhibitory compounds of the present invention may be examined for their PDE IV inhibitory effects via the techniques set forth in the following examples, wherein the ability of the compounds to inhibit PDE IV isolated from bovine tracheal smooth muscle is set forth.
The Type IV PDE is isolated from bovine tracheal smooth muscle using a procedure similar to that previously described by Silver, P. J. et al., Eur. J. Pharmacol. 150:85,1988.(1). Briefly, smooth muscle from bovine trachea is minced and homogenized using a polytron in 10 volumes of an extraction buffer containing 10 mM Tris-acetate (pH 7.5), 2 mM magnesium chloride, 1 mM dithiothreitol and 2,000 units/ml of aprotinin. This and all subsequent procedures are performed at 0-4° C. The homogenate is sonicated and then centrifuged at 48,000×g for 30 minutes. The resulting supernatant is applied to a DEAE Trisacryl M column previously equilibrated with sodium acetate and dithiothreitol. After applications of the sample, the column is washed with sodium acetate/ dithiothreitol, after which the different forms of PDE are eluted from the column using a linear Tris-HCl/NaCl gradient. Fractions containing Type IV PDE are collected, dialyzed and concentrated to 14% of the original volume. The concentrated fractions are diluted to 50% with ethylene glycol and stored at -20° C.
Enzyme activity is assessed by measuring the hydrolysis of [^3 H]-cyclic AMP, as described by Thompson, W. J. et al., Adv. Cyclic Nucleotide Res. 10:69, 1979. The cyclic AMP concentration used in this assay is 0.2 mM, which approximates the Km value. Protein concentration is adjusted to ensure that no more than 15% of the available substrate is hydrolyzed during the incubation period.
All test compounds are dissolved in dimethyl sulfoxide (final concentration of 2.5%). This concentration of dimethyl sulfoxide inhibits enzyme activity by approximately 10%.

lymphocytes = conditions: in-vitro, in words; cited from earlier work
[3] = test system: mast cells, basophils, monocytes and eosinophils; conditions: in-vitro, in words; cited from earlier work
[4] = test system: neutrophils and eosinophils; conditions: in-vitro, in words; cited from earlier work
PDE IV = conditions: in words, background; cited from earlier work
[5] = in words; cited from earlier work
PDE III = conditions: in words, background; cited from earlier work

- IC50 [2]: 18.4 µM
Compound: CCCn1c(=O)[nH]c(=S)c2[nH]c(CC)nc21 [3-propyl-8-ethyl-6-thioxanthine]

- IC50 [2]: 2.97 µM
Compound: CCCn1c(=S)c2[nH]c(C3CC3)nc2n(CCC)c1=O [8-Cyclopropyl-1,3-dipropyl-6-thioxanthine]

- IC50 [2]: 1.18 µM
Compound: CCC(C)Cn1c(=O)n(CC)c(=S)c2[nH]c(C3CC3)nc21 (stereo not shown) [8-Cyclopropyl-1-ethyl-3-(2-methyl-butyl)-6-thioxanthine]

- IC50 [2]: 3.83 µM
Compound: CCC(C)Cn1c(=O)[nH]c(=S)c2[nH]c(C3CC3)nc21 (stereo not shown) [8-cyclopropyl-3-(2-methyl-butyl)-6-thioxanthine]

- IC50 [2]: 4.47 µM
Compound: CCCn1c(=O)[nH]c(=S)c2[nH]c(C3CC3)nc21 [8-cyclopropyl-3-propyl-6-thioxanthine]

- IC50 [2]: 1.67 µM
Compound: CCCn1c(=S)c2[nH]c(C(C)C)nc2n(CCC)c1=O [8-isopropyl-1,3-dipropyl-6-thioxanthine, 1,3-Dipropyl-8-isopropyl-6-thioxanthine]

- IC50 [2]: 3.3 µM
Compound: CCCn1c(=O)[nH]c(=S)c2[nH]c(C(C)C)nc21 [8-isopropyl-3-propyl-6-thioxanthine]

The next lines start with the molecule.

Compound: Cc1nc2c([nH]1)c(=S)n(C)c(=O)n2C [1,3,8-trimethyl-6-thioxanthine]
- bronchial and coronary dilator activity [1]: having bronchial and coronary dilator activity

Compound: CCn1c(=S)c2[nH]c(C(C)C)nc2n(CC)c1=O [1,3-diethyl-8-isopropyl-6-thioxanthine, 1,3-Diethyl-8-isopropyl-6-thioxanthine]
- IC50 [2]: 1.2 µM

Compound: CCc1nc2c([nH]1)c(=S)n(C)c(=O)n2C [1,3-dimethyl-8-ethyl-6-thioxanthine]
- bronchial and coronary dilator activity [1]: having bronchial and coronary dilator activity

Compound: CCn1c(=O)n(C)c(=S)c2[nH]c(C(C)C)nc21 [3-ethyl-1-methyl-8-isopropyl-6-thioxanthine]
- IC50 [2]: 1 µM

Compound: CCn1c(=O)[nH]c(=S)c2[nH]c(C(C)C)nc21 [3-ethyl-8-isopropyl-6-thioxanthine]
- IC50 [2]: 4.6 µM

Compound: CCCCOc1cc(CC2CNC(=O)N2)ccc1OC (stereo not shown) [Ro-201724]
- inhibition of mitogen-dependent growth and differentiation (lymphocytes): shown to inhibit
- inhibition of mediator synthesis/release [3]: shown to inhibit
- inhibition of respiratory burst, chemotaxis and degranulation [4]: shown to inhibit

Compound: COc1ccc(C2CNC(=O)C2)cc1OC1CCCC1 (stereo not shown) [Rolipram]
- PDE IV inhibition (PDE IV): selectively inhibit the PDE IV enzyme
- inhibition of mitogen-dependent growth and differentiation (lymphocytes): shown to inhibit
- inhibition of mediator synthesis/release [3]: shown to inhibit
- inhibition of respiratory burst, chemotaxis and degranulation [4]: shown to inhibit

Compound: Cn1c(=O)c2[nH]cnc2n(C)c1=O [Theophylline]
- PDE IV inhibition (PDE IV): inhibits both PDE III and PDE IV
- therapeutic index [5]: narrow therapeutic index
- PDE III inhibition (PDE III): inhibits both PDE III and PDE IV
